The subject of one experiment is MIA PaCa-2 cells. Put plainly: Cell viability assay (MTT) in MIA PaCa-2 cells. It is filed as cell-based. To be noted: Homo sapiens, antiproliferative activity, 72 h. How it is done:
MIA PaCa-2 cells (CRL-1420, ATCC) were maintained in DMEM media supplemented with 10% FBS, 2.5% HS, 1% GlutaMAX, 1% sodium pyruvate, 100 U/mL penicillin, and 100 μg/mL streptomycin. Cell culture media and additives were purchased from Gibco. Cells were plated in 96-well plates at |1−2.5|×10^4 cells per well in the DMEM growth media. One microliter of a 2-fold serially diluted compound solution in DMSO (Sigma) starting at 20 mM (100 μM final concentration) was added to each well. The final volume in each well was 200 μL, yielding a final DMSO concentration of 0.5%. Control wells contained 0.5% DMSO (100% viability) or 25% DMSO (background) and all reactions were done in triplicate. The plate was incubated for 72 h at 37° C. in a 5% CO2/95% air humidified atmosphere.
Measurement of cell viability was carried out using a modified method of Mosmann based on 3-(4,5-dimethylthiazol-2-yl)-2,5-diphenyltetrazolium bromide (MTT, Sigma). MTT solution was prepared fresh at 1 mg/mL in serum-free and phenol red-free RPMI 1640 media. After 200 μL of MTT solution was added to each well, the plate was incubated as described above for 3 h. The MTT solution was removed, and the formazan crystals were solubilized with 200 μL of isopropanol. The plate was read on a SpectraMax i3 spectrophotometer (Molecular Devices) at 570 nm for formazan and 650 nm for background subtraction. EC50 values were calculated by fitting the data in GraphPad Prism software. EC50 values were determined in triplicate.
As usually defined, the EC50 is the concentration giving half of the maximal effect. A lower EC50 goes with higher potency in that assay. With `Cc1nn(Cc2ccccc2)c(C)c1NC(=O)c1ccc(COc2ccccc2)cc1` [Compound A1, N-(1-Benzyl-3,5-dimethyl-1H-pyrazol-4-yl)-4-(phenoxymethyl)benzamide], the EC50 came out at 10 µM.
The same measure, in the same setting: the result for `Cc1nn(Cc2cccc(C(=O)Nc3ccccc3)c2)c(C)c1NC(=O)c1ccc(COc2ccccc2)cc1` [Compound A4d, 3-((3,5-Dimethyl-4-(4-(phenoxymethyl)benzamido)-1H-pyrazol-1-yl)methyl)-N-phenylbenzamide] reads 6.4 µM; that for `CNC(=O)c1cccc(Cn2nc(C)c(N(C)C(=O)c3ccc(COc4ccccc4)cc3)c2C)c1` [Compound B1, N-(3,5-Dimethyl-1-(3-(methylcarbamoyl)benzyl)-1H-pyrazol-4-yl)-N-methyl-4-(phenoxymethyl)benzamide], 17 µM.
In turn, `CNC(=O)c1cccc(Cn2nc(C)c(NCc3ccc(COc4ccccc4)cc3)c2C)c1` [Compound B2, 3-((3,5-Dimethyl-4-((4-(phenoxymethyl)benzyl)amino)-1H-pyrazol-1-yl)methyl)-N-methylbenzamide] returned an EC50 of 6.1 µM.
Still for that read-out and setting: the result for `CNC(=O)c1cccc(Cn2nc(C)c(NS(=O)(=O)c3ccc(COc4ccccc4)cc3)c2C)c1` [Compound B3, 3-((3,5-Dimethyl-4-((4-(phenoxymethyl)phenyl)sulfonamido)-1H-pyrazol-1-yl)methyl)-N-methylbenzamide] reads 25 µM; that for `CNC(=O)c1cccc(Cn2nc(C)c(NC(=O)c3ccc(CSc4ccccc4)cc3)c2C)c1` [Compound C1, 3-((3,5-Dimethyl-4-(4-((phenylthio)methyl)benzamido)-1H-pyrazol-1-yl)methyl)-N-methylbenzamide], 8.3 µM; that for `CNC(=O)c1cccc(Cn2nc(C)c(NC(=O)c3ccc(CNc4ccccc4)cc3)c2C)c1` [Compound C2, 3-((3,5-Dimethyl-4-(4-((phenylamino)methyl)benzamido)-1H-pyrazol-1-yl)methyl)-N-methylbenzamide], 17 µM.
The same measure, in the same setting: the result for `CNC(=O)c1cccc(Cn2nc(C)c(NC(=O)c3cccc(COc4ccccc4)c3)c2C)c1` [Compound C6, N-(3,5-Dimethyl-1-(3-(methylcarbamoyl)benzyl)-1H-pyrazol-4-yl)-3-(phenoxymethyl)benzamide] reads 32 µM.
Same read-out and setting: the figure for `CNC(=O)c1cccc(Cn2nc(C)c(NC(=O)c3ccc(COC4CCCCC4)cc3)c2C)c1` [Compound C7, 3-((4-(4-((Cyclohexyloxy)methyl)benzamido)-3,5-dimethyl-1H-pyrazol-1-yl)methyl)-N-methylbenzamide] is 14 µM; for `CNC(=O)c1cccc(Cn2nc(C)c(NC(=O)c3ccc(COc4ccc5ccccc5c4)cc3)c2C)c1` [Compound D1, 3-((3,5-Dimethyl-4-(4-((naphthalen-2-yloxy)methyl)benzamido)-1H-pyrazol-1-yl)methyl)-N-methylbenzamide] it is 9.1 µM; for `CNC(=O)c1cccc(Cn2nc(C)c(NC(=O)c3ccc(COc4cccc(C#N)c4)cc3)c2C)c1` [Compound D7b, 3-((4-(4-((3-Cyanophenoxy)methyl)benzamido)-3,5-dimethyl-1H-pyrazol-1-yl)methyl)-N-methylbenzamide] it is 10 µM.
In turn, `CNC(=O)c1cccc(Cn2nc(C)c(NC(=O)c3ccc(COc4ccccc4[N+](=O)[O-])cc3)c2C)c1` [Compound D8a, 3-((3,5-Dimethyl-4-(4-((2-nitrophenoxy)methyl)benzamido)-1H-pyrazol-1-yl)methyl)-N-methylbenzamide] yielded an EC50 of 11 µM.
On to `CNC(=O)c1cccc(Cn2nc(C)c(NC(=O)c3ccc(COc4cccc([N+](=O)[O-])c4)cc3)c2C)c1` [Compound D8b, 3-((3,5-Dimethyl-4-(4-((3-nitrophenoxy)methyl)benzamido)-1H-pyrazol-1-yl)methyl)-N-methylbenzamide], for which the EC50 was 10 µM.
Still for that read-out and setting: the result for `CNC(=O)c1cccc(Cn2nc(C)c(NC(=O)c3ccc(COc4ccc([N+](=O)[O-])cc4)cc3)c2C)c1` [Compound D8c, 3-((3,5-Dimethyl-4-(4-((4-nitrophenoxy)methyl)benzamido)-1H-pyrazol-1-yl)methyl)-N-methylbenzamide] reads 9.7 µM.
On the same count and under the same terms, the result for `CNC(=O)c1cccc(Cn2nc(C)c(NC(=O)c3ccc(COc4ccc(C(F)(F)F)cc4C)nc3)c2C)c1` [Compound E5a, N-(3,5-Dimethyl-1-(3-(methylcarbamoyl)benzyl)-1H-pyrazol-4-yl)-6-((2-methyl-4-(trifluoromethyl)phenoxy)methyl)nicotinamide] reads 6.7 µM; that for `CNC(=O)c1cc(Cn2nc(C)c(NC(=O)c3ccc(COc4ccc(C(F)(F)F)cc4C)nc3)c2C)ccn1` [Compound E5b, 4-((3,5-Dimethyl-4-(6-((2-methyl-4-(trifluoromethyl)phenoxy)methyl)nicotinamido)-1H-pyrazol-1-yl)methyl)-N-methylpicolinamide], 9.4 µM.
Same read-out and setting: the figure for `CNC(=O)c1cccc(Cn2nc(C)c(NC(=O)c3ccc(Oc4ccccc4)cc3)c2C)c1` [Compound E6a, 3-((3,5-Dimethyl-4-(4-phenoxybenzamido)-1H-pyrazol-1-yl)methyl)-N-methylbenzamide] is 8.4 µM; for `CNC(=O)c1cccc(Cn2nc(C)c(NC(=O)c3ccc(Oc4ccc(C(F)(F)F)cc4)cc3)c2C)c1` [Compound E6b, 3-((3,5-Dimethyl-4-(4-(4-(trifluoromethyl)phenoxy)-benzamido)-1H-pyrazol-1-yl)methyl)-N-methylbenzamide] it is 4.6 µM; for `CNC(=O)c1cccc(Cn2nc(C)c(NC(=O)c3ccc(Oc4ccc(C(F)(F)F)cc4C)cc3)c2C)c1` [Compound E6c, 3-((3,5-Dimethyl-4-(4-(2-methyl-4-(trifluoromethyl)phenoxy)benzamido)-1H-pyrazol-1-yl)methyl)-N-methylbenzamide] it is 1.2 µM.
In the case of `CNC(=O)c1cc(Cn2nc(C)c(NC(=O)c3ccc(Oc4ccc(C(F)(F)F)cc4)cc3)c2C)ccn1` [Compound E7a, 4-((3,5-Dimethyl-4-(4-(4-(trifluoromethyl)phenoxy)-benzamido)-1H-pyrazol-1-yl)methyl)-N-methylpicolinamide], the EC50 came to 8.1 µM.
Still for that read-out and setting: the result for `CNC(=O)c1cc(Cn2nc(C)c(NC(=O)c3ccc(Oc4ccc(C(F)(F)F)cc4C)cc3)c2C)ccn1` [Compound E7b, 4-((3,5-Dimethyl-4-(4-(2-methyl-4-(trifluoromethyl)phenoxy)-benzamido)-1H-pyrazol-1-yl)methyl)-N-methylpicolinamide] reads 10 µM.
On the same count and under the same terms, the result for `CNC(=O)c1cccc(Cn2nc(C)c(NC(=O)c3ccc(C(C)Oc4ccccc4)cc3)c2C)c1` (centres unmarked) [Compound F1, 3-((3,5-Dimethyl-4-(4-(1-phenoxyethyl)benzamido)-1H-pyrazol-1-yl)methyl)-N-methylbenzamide] reads 22 µM; that for `CNC(=O)c1cccc(C(C)n2nc(C)c(NC(=O)c3ccc(COc4ccccc4)cc3)c2C)c1` (centres unmarked) [Compound F2, 3-(1-(3,5-Dimethyl-4-(4-(phenoxymethyl)benzamido)-1H-pyrazol-1-yl)ethyl)-N-methylbenzamide], 7.7 µM.
`CNC(=O)c1cccc(C(C)n2nc(C)c(NC(=O)c3ccc(COc4ccc(C(F)(F)F)cc4C)cc3)c2C)c1` (centres unmarked) [Compound F3, 3-(1-(3,5-Dimethyl-4-(4-((2-methyl-4-(trifluoromethyl)phenoxy)methyl)benzamido)-1H-pyrazol-1-yl)ethyl)-N-methylbenzamide] showed an EC50 of 2.4 µM.
Same read-out and setting: the figure for `CNC(=O)c1cc(C(C)n2nc(C)c(NC(=O)c3ccc(COc4ccc(C(F)(F)F)cc4C)cc3)c2C)ccn1` (centres unmarked) [Compound F4, 4-(1-(3,5-Dimethyl-4-(4-((2-methyl-4-(trifluoromethyl)phenoxy)methyl)benzamido)-1H-pyrazol-1-yl)ethyl)-N-methylpicolinamide] is 4 µM; for `CNC(=O)c1cccc(Cn2nc(C)c(NC(=O)c3ccc(COc4ccccn4)cc3)c2C)c1` [Compound G1, 3-((3,5-Dimethyl-4-(4-((pyridin-2-yloxy)methyl)benzamido)-1H-pyrazol-1-yl)methyl)-N-methylbenzamide] it is above 100 µM; for `CNC(=O)c1cccc(Cn2nc(C)c(NC(=O)c3ccc(COc4cccnc4)cc3)c2C)c1` [Compound G2, 3-((3,5-Dimethyl-4-(4-((pyridin-3-yloxy)methyl)benzamido)-1H-pyrazol-1-yl)methyl)-N-methylbenzamide] it is 24 µM.
Turning to `CNC(=O)c1cccc(Cn2nc(C)c(NC(=O)c3ccc(COc4ccncc4)cc3)c2C)c1` [Compound G3, 3-((3,5-Dimethyl-4-(4-((pyridin-4-yloxy)methyl)benzamido)-1H-pyrazol-1-yl)methyl)-N-methylbenzamide], the midpoint of the response, the EC50, lay at 99 µM. Against the preceding compound, the EC50 is about 4.1-fold higher.

The next experiment concerns Panc-1 cells. Put plainly: Cell viability assay (MTT) in Panc-1 cells. It counts as cell-based. To be noted: Homo sapiens, antiproliferative activity, 72 h. How it is done: Panc-1 cells are maintained in RPMI 1640 (Invitrogen 11875) media supplemented with 10% FBS, 1% Penicillin/Streptomycin and 1% Glutamax-1. Cells were plated in 96-well plates at 25×10^4 cells/ml. After 24 hours, compounds were added at 9, 3× dilutions in triplicate from 100 uM final concentration in the appropriate growth media. Plates were incubated for 72 hours at 37° C. in a 5% CO2/95% air humidified atmosphere after which time the media was removed and MTT was added in RPMI phenol red free media. The MTT was removed after 3 hours and formazan crystals were solubilized with 200 μL of isopropanol. Plates were read on a Molecular Devices SpectraMax i3 spectrophotometer at 570 nm for formazan and 690 nm for background subtraction. EC50 values were calculated by fitting the data in GraphPad Prism software.
`Cc1nn(Cc2ccccc2)c(C)c1NC(=O)c1ccc(COc2ccccc2)cc1` [Compound A1, N-(1-Benzyl-3,5-dimethyl-1H-pyrazol-4-yl)-4-(phenoxymethyl)benzamide] showed an EC50 of 9 µM.
